Experimental data published in ChEMBL document CHEMBL1132078, “Bicyclo[3.2.1]octanes: synthesis and inhibition of binding at the dopamine and serotonin transporters” (Bioorg Med Chem Lett, 1999).

What was measured:
[1] = molecular target: Sodium-dependent dopamine transporter (Macaca fascicularis, UniProt Q9GJT6); assay: Inhibition of [3H]WIN-35428 binding to dopamine transporter (DAT) of cynomolgus monkey caudate-putamen; type: tissue-based
[2] = molecular target: Sodium-dependent serotonin transporter; assay: Inhibition of [3H]citalopram binding to serotonin transporter (SERT) of cynomolgus monkey caudate-putamen; type: tissue-based

Sequence of Sodium-dependent dopamine transporter (Q9GJT6 whole entry): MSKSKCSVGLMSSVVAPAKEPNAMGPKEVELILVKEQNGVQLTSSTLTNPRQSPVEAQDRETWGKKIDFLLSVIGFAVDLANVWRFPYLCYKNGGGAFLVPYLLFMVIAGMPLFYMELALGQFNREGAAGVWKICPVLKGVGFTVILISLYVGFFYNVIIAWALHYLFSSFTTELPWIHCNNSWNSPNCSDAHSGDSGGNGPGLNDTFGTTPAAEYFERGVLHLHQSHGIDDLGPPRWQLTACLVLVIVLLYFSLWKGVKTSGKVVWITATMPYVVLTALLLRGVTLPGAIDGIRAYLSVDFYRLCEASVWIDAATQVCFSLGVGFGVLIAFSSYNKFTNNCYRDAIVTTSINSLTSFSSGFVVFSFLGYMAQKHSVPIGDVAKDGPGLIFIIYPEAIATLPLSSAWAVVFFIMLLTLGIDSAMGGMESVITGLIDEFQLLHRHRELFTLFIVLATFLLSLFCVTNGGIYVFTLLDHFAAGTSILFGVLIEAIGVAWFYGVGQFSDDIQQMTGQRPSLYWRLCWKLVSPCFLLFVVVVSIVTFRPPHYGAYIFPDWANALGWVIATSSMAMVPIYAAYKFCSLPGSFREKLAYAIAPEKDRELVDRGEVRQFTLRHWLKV

Structure (SMILES)	IC50 [1]	IC50 [2]
COC(=O)C1C2CCC(CC1c1ccc(Cl)c(Cl)c1)N2 (stereo not given)	0.7 nM	1.24 nM
COC(=O)C1C(c2ccc(Cl)c(Cl)c2)CC2CCC1N2C (stereo not given)	1.1 nM	27.6 nM
COC(=O)C1=C(c2ccc(Cl)c(Cl)c2)CC2CCC1N2C (stereo not given)	1.2 nM	867 nM
COC(=O)C1C2CCC(C2)CC1c1ccc(Cl)c(Cl)c1 (racemic)	14.3 nM	180 nM
COC(=O)C1=C(c2ccc(Cl)c(Cl)c2)CC2CCC1C2 (racemic)	7.1 nM	5160 nM
COC(=O)C1C2CCC(CC1c1ccc(Cl)c(Cl)c1)O2 (racemic; form 1)	3.4 nM	
COC(=O)C1C2CCC(CC1c1ccc(Cl)c(Cl)c1)O2 (racemic; form 2)	3.1 nM	
COC(=O)C1=C(c2ccc(Cl)c(Cl)c2)CC2CCC1O2 (stereo in doubt; 5b (R))	4.2 nM	2120 nM
COC(=O)C1=C(c2ccc(Cl)c(Cl)c2)CC2CCC1O2 (stereo in doubt; 5b (R/S))	12.8 nM	1960 nM
COC(=O)C1C2CCC(C2)CC1c1ccc(Cl)c(Cl)c1 (stereo in doubt; 6a (R/S))	9.6 nM	33.4 nM
COC(=O)C1C2CCC(CC1c1ccc(Cl)c(Cl)c1)O2 (stereo in doubt; 7b (R))	2.3 nM	30.3 nM
